Results on eleven molecules are retold here after ChEMBL document CHEMBL3259594, “Benzylpiperidine variations on histamine H3 receptor ligands for improved drug-likeness” (Bioorg Med Chem Lett, 2014).

One may read the Ki as a measure of affinity in units of concentration, obtained from inhibition or displacement.

Structures are written as SMILES.

T1 sequence (Q9Y5N1 whole entry): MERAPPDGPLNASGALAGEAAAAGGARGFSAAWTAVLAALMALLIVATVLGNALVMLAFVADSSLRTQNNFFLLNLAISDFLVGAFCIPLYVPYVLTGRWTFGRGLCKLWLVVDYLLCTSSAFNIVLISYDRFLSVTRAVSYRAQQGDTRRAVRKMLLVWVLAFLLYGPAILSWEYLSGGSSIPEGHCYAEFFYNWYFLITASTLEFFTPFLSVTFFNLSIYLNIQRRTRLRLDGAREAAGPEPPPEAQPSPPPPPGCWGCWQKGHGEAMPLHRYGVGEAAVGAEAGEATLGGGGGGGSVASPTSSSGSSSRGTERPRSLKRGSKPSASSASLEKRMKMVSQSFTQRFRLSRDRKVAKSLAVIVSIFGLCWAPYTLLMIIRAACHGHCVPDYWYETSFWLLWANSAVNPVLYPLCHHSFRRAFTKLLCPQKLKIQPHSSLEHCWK

The target in the first assay is Histamine H3 receptor (Rattus norvegicus, UniProt Q9QYN8). Briefly: Binding affinity to rat histamine H3 receptor.
Chain of Histamine H3 receptor (Rattus norvegicus, UniProt Q9QYN8) (Q9QYN8 whole entry): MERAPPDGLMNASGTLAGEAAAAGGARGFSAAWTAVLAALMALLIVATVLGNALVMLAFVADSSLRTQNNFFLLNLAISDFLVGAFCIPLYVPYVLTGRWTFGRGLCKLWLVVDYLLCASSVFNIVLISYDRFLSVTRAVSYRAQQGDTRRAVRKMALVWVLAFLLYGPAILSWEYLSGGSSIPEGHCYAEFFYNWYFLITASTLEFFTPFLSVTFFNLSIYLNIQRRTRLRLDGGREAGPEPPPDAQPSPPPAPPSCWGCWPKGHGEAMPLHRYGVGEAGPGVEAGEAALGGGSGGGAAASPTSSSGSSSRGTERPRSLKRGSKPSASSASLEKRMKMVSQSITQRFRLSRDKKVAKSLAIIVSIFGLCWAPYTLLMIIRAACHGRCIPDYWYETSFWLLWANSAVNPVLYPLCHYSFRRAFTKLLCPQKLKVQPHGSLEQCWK
As to `c1cc(OCCCN2CCCCC2)ccc1CN1CCCCC1` [JNJ-5207852], the affinity corresponds to a Ki of 0.58 nM.

A further assay addresses T1, Histamine H3 receptor (Homo sapiens, UniProt Q9Y5N1). The assay can be described thus: Displacement of [3H]N-alpha-methylhistamine from recombinant human histamine H3 receptor expressed in HEK293 cells after 90 mins. It is filed as cell-based.
For `OC1CCN(Cc2ccc(OCCCN3CCCCC3)cc2)CC1`, the Ki is 0.589 nM.

In the case of `OCC1CCN(Cc2ccc(OCCCN3CCCCC3)cc2)CC1`, the Ki is 0.676 nM.

Turning to `O=C(O)C1CCN(Cc2ccc(OCCCN3CCCCC3)cc2)CC1`, the Ki is 12.9 nM. Still for that read-out and setting: with `CCOC(=O)C1CCN(Cc2ccc(OCCCN3CCCCC3)cc2)CC1` the figure was 0.229 nM; with `Cc1nnc(C2CCN(Cc3ccc(OCCCN4CCCCC4)cc3)CC2)o1`, 0.479 nM.

The target in another assay is T1, Histamine H3 receptor. Briefly: Displacement of [125I]Iodoproxyfan from recombinant human histamine H3 receptor expressed in HEK293 cells after 90 mins. It is filed as cell-based. In general terms: In a radioligand displacement assay an active substance lowers the binding of a labelled ligand.
Consider `c1ccc2c(c1)CCN(Cc1ccc(OCCCN3CCCCC3)cc1)C2`, for which the Ki was 2.95 nM.

For `C#CCNC(=O)C1CCN(Cc2ccc(OCCCN3CCCCC3)cc2)CC1`, the inhibitory constant (Ki) was 11 nM. Still for that read-out and setting: with `c1cc(OCCCN2CCCCC2)ccc1CN1CCC2(CC1)OCCO2` the figure was 2.04 nM; with `CCNC(=O)C1CCN(Cc2ccc(OCCCN3CCCCC3)cc2)CC1`, 2.95 nM. Same read-out and setting: the figure for `O=C1CCN(Cc2ccc(OCCCN3CCCCC3)cc2)CC1` is 2.51 nM.
